Assay results: US4859664A, “Derivatives of 2,3,4,5,6,7-hexahydro-2,7-methano-1,5-benzoxazonines and -1,4-benzoxazonines, processes for their production and their use as pharmaceuticals” (priority 1986, dated 1989)
Like-named read-outs stand apart in the source and are kept apart here.

Tests used:
[1] = assay type: in vivo, male NMRI mice; conditions: ED50 p.o. / ED50 s.c.
Description: (§1) […]. They were given a standard feed and water ad libitum up to the commencement of the experiments.
(§2) The test compounds were administered in a volume of 10 ml./kg./body weight per mouse. As carrier, there was used physiological sodium chloride solution or a suspension of 0.5% tragacanth in physiological sodium chloride solution.
(§3) The experimental results are given as average values with a mean error of the average value (x±S.E.M.). The ED50 values were calculated according to Litchfield and Wilcoxon (J. Pharmacol. Exp. Ther., 96, 99/1949). The compounds were thereby tested in 4 dosages (p≤0.5).
(§4) For the significance calculation, there was used Student's t test (see Angewandte Statistik, pub. Stringer Verlag, Berlin, Heidelberg, 242/1983), as well as the range sum test of Mann and Withney (Ann. Math. stat., 50, 1818/1947).
(§5) 1.1. In the acetic acid writhing test (see R. Koster et al., Fed. proc., 18, 412/1954), the typical stretching movements referred to as "writhing", were produced by the intraperitoneal administration of a 0.6% acetic acid solution. 30 minutes previously, the substance to be tested was administered subcutaneously (s.c.) or orally ([…].) to the animals. 3 minutes after administration of the acetic acid solution, the total number of stretching movements in a period of time of 10 minutes was ascertained. From the decrease of the stretching reactions due to the action of the test compound in comparison with non-pretreated control groups, there was determined the percentage inhibition action.

[2] = assay type: in vivo, male NMRI mice; conditions: for % inhibition action ± SEM with naloxone: with naloxone hydrochloride 20 mg./kg. s.c.; for change in % (with vs without naloxone): given without sign
Description: They were given a standard feed and water ad libitum up to the commencement of the experiments.
as §2, §3, §4, §5
Naloxone-antagonistic action in the writhing test.
20 Minutes before the subcutaneous administration of the test compounds, the animals were given 20 mg./kg. naloxone hydrochloride subcutaneously. The further carrying out of the experiments was as described above.

[3] = hot plate test; assay type: in vivo, male NMRI mice; conditions: Mus musculus, sc; plate 54° C.; 30 and 60 min; limits in brackets; read-out: ED50 (50% increase of the reaction time)
Description: (§6) For the pharmacological investigations described in the following, there were used male NMRI mice with a weight of from 15 to 30 g. The animals were kept under usual laboratory conditions, randomised and subjected to a light-dark change with a 12 hour rhythm. They were given a standard feed and water ad libitum up to the commencement of the experiments.
as §2
The experimental results are given as average values with a mean error of the average value (x±S.E.M.). The ED50 values were calculated according to Litchfield and Wilcoxon (J. Pharmacol. Exp. Ther., 96, 99/1949). The compounds were thereby tested in 4 dosages ([…]). […]
30 and 60 minutes after the subcutaneous administration of the test compounds, the experimental animals were placed on a metal plate, the surface temperature of which was kept constant at 54° C. The time was measured up to the commencement of a pain reaction (standing on the rear paws with licking and rubbing togeth4er of the front paws or jumping). In a preceding test, the average reaction time of the animals was determined from three measurements at intervals of, in each case, 15 minutes. […]

[4] = assay type: in vivo, male NMRI mice; conditions: s.c. increasing dosages over 2 days, naloxone i.p.; for % of reacting animals: 10 minutes
Description: as §1, §2
2. Development of dependency.
Withdrawal jumps of the mouse (see J. K. Saelens et al., Arch. Int. Pharmacodyn. Ther., 190, 213/1971).
Mice which were dependent upon morphine or other opiates react, when treated with morphine antagonists, with a flight reaction (see F. Huidobro and C. Maggiolo, Arch. Int. Pharmacodyn. Ther., 158, 97/1965); E. L. Way et al., Science, 162, 1290/1968). This flight reaction manifests itself in very vigorous jumping reactions which continue for about 10 minutes. From the number of reacting animals and especially from the jump frequency per animal, there can be deduced the strength of the withdrawal symptoms and thus the degree of dependency upon the test compound. Carrying out of the test:
The test and standard compounds were administered subcutaneously according to the scheme shown in the following Table III in increasing dosages over the course of 2 days.
For the provocation of the withdrawal jumps, the animals received intraperitoneally, 2 hours after the last compound administration, 30 mg./kg. naloxone hydrochloride.
Immediately after the administration of the naloxone, the animals were placed individually in a 5 liter glass beaker. Subsequently, the number of jump movements was recorded during the course of 10 minutes. For evaluation, the number of animals reacting the withdrawal jumps, as well as the average number of jumps per animal, was used.
The animals of the naloxone control group were, up to the administration of naloxone, treated with a 0.9% aqueous solution of sodium chloride (6 animals/dosage group).

[5] = testing for ataxia (rotating rod test); assay type: in vivo, male NMRI mice
Description: as §6, §2
There was used the rotating rod test (see F. Gross et al., Schweiz. Med. Wschr., 85, 305/1955).
5 animals per dosage group were trained to keep themselves on a horizontally rotating rod made of synthetic resin (16 rpm). 40, 80 and 120 minutes after the subcutaneous administration of the test compounds, the animals were again tested. From the number of animals which fell off prematurely, there was determined the disturbance of the movement coordination.

[6] = antidepressive action: reserpine reversal test (tetrabenazine); assay type: in vivo, male NMRI mice; conditions: 50 and 25 mg./kg. s.c.
Description: as §6, §2
7. Antidepressive action.
There was used the reserpine reversal test (see G. Zettler, K. Mahler and F. Daniel, Naunyn-Schmiedeberg's Arch. Exp. Path. Pharmacol., 238, 468/1960; ibid. 236, 422/1958). 30 minutes after the subcutaneous administration of the test compounds, the animals (6 animals per dosage group) received subcutaneously 40 mg./kg. tetrabenazine dissolved in 0.5% aqueous ascorbic acid solution. 30 and 60 minutes after the tetrabenazine administration, the animals were placed on a vertical rod (length 90 cm., diameter 1.5 cm., coiled round with 0.2 cm. thick thread) and observed for 30 seconds. Those animals which remained motionless during this time were evaluated as being cataleptic. Previously, the degree of ptosis was assessed.

SMILES | quotient p.o./s.c. (of ED50) [1] | % inhibition action ± SEM with naloxone ([2]; 12.5 mg/kg s.c.) | % inhibition action ± SEM without naloxone ([2]; 12.5 mg/kg s.c.) | change in % (with vs without naloxone) ([2]; 12.5 mg/kg s.c.) | % inhibition action ± SEM with naloxone ([2]; 25 mg/kg s.c.) | % inhibition action ± SEM without naloxone ([2]; 25 mg/kg s.c.) | change in % (with vs without naloxone) ([2]; 25 mg/kg s.c.) | % inhibition action ± SEM with naloxone ([2]; 50 mg/kg s.c.) | % inhibition action ± SEM without naloxone ([2]; 50 mg/kg s.c.) | change in % (with vs without naloxone) ([2]; 50 mg/kg s.c.) | ED50 [3] | average number of jumps/animal/10 minutes [4] | % of reacting animals [4] | change of the maintenance time in % compared with the control group, after 40 min. ([5]; 25 mg/kg s.c.) | change of the maintenance time in % compared with the control group, after 80 min. ([5]; 25 mg/kg s.c.) | change of the maintenance time in % compared with the control group, after 120 min. ([5]; 25 mg/kg s.c.) | change of the maintenance time in % compared with the control group, after 40 min. ([5]; 50 mg/kg s.c.) | change of the maintenance time in % compared with the control group, after 80 min. ([5]; 50 mg/kg s.c.) | change of the maintenance time in % compared with the control group, after 120 min. ([5]; 50 mg/kg s.c.) | influence on tetrabenazine-induced catalepsy [6] | also measured
CC12CCNCC(C1)c1ccccc1O2 (stereo not drawn) [Example 6, 2,3,4,5,6,7-hexahydro-2-methyl-2,7-methano-1,5-benzoxazonine] | 1.65 | 39.7 ± 10.4% | 33.2 ± 3.2% | 6.5% | 65.5 ± 6.5% | 58.9 ± 10.1% | 6.6% | 91.8 ± 3.3% | 84.6 ± 7.7% | 7.2% | 13.8 mg/kg | 0 | 0% | 0% | -8% | 0% | -17% | 0% | -8% | did not influence | influence on tetrabenazine-induced ptosis [6]: did not influence
CC1NCCC2(C)CC1c1ccccc1O2 (stereo not drawn) [Example 9, 2,3,4,5,6,7-hexahydro-2,6-dimethyl-2,7-methano-1,5-benzoxazonine] | 1.45 | 52.0 ± 1.5% | 57.0 ± 7.6% | 5.0% | 80.1 ± 6.8% | 64.0 ± 5.0% | 16.1% | 88.4 ± 11.6% | 84.9 ± 2.7% | 3.5% | 12 mg/kg | 0 | 0% | -13% | -17% | -12% | 0% | 0% | -2% | did not influence | influence on tetrabenazine-induced ptosis [6]: did not influence
